Experimental data from patent publication US5856359A, “Thyroxine/cyclodextrin complexes and pharmaceutical compositions containing the same” (Hexal AG, priority 1995, dated 1999).
Counter-ions that a name gives are not always drawn.

Legend:
Type in all cases: physicochemical
[1] = Aqueous solubility of L-thyroxine free acid in the presence of γ-cyclodextrin
Description: This poor solubility can be affected positively by employing γ-cyclodextrin. The effect of γ-cyclodextrin as to the aqueous solubility of thyroxine acid is shown by the results in the table below:
Aqueous solubility of thyroxine free acid in the
presence of γ-cyclodextrin at 25° C. studied on two

[2] = Aqueous solubility of L-thyroxine sodium salt in the presence of cyclodextrins
Source text: Interaction between L-thyroxine sodium and cyclodextrins in presence of water.
One evidence of the interaction between L-thyroxine and cyclodextrins is that the cyclodextrins increase the aqueous solubility of the thyroxine as shown in Table 1.
Solubility of L-thyroxine sodium salt in the presence of CDs (mg/ml)

[3] = Physical stability of aqueous gels and solutions on storage
Description: 150 mg of a water swellable polymer (i.e. Klucel; Hercules Corp. USA) was added.
The aqueous gel containing γ-cyclodextrin solubilized thyroxine was prepared by mixing at room temperature 150 mg of Pionier NP37 (polyacrylicacid) with 10 ml of 10% aqueous γ-cyclodextrin solution containing 300 mg solubilized L-thyroxine-Na.
10 ml of the aqueous Pionier NP37-thyroxine/γ-cyclodextrin formulation was stored in sealed polyethylene bags as well as in capped glass vials under normal laboratory conditions (22° C. exposed to day light) for two weeks and the turbidity of the samples was investigated.

With `N[C@@H](Cc1cc(I)c(Oc2cc(I)c(O)c(I)c2)c(I)c1)C(=O)O` [L-thyroxine free acid, 0-(4-hydroxy-3,5-diiodophenyl)-3,5-diiodotyrosine] the “enhancement of aqueous solubility of the acid form of thyroxine” value ([1]; cyclodextrin 20% by weight) was “enhanced by about ten-fold”, the solubility ([1]; water with γ-cyclodextrin, γ-cyclodextrin 5 g/100 ml, 25° C., 1-st run, read-out: solubility of thyroxine free acid) was 400 µg/mL and the solubility ([1]; water with γ-cyclodextrin, γ-cyclodextrin 5 g/100 ml, 25° C., 2-nd run, read-out: solubility of thyroxine free acid) was 379 µg/mL. The solubility ([1]; water with γ-cyclodextrin, γ-cyclodextrin 10 g/100 ml, 25° C., 1-st run, read-out: solubility of thyroxine free acid) was 646 µg/mL, the solubility ([1]; water with γ-cyclodextrin, γ-cyclodextrin 10 g/100 ml, 25° C., 2-nd run, read-out: solubility of thyroxine free acid) was 652 µg/mL and the solubility ([1]; water with γ-cyclodextrin, γ-cyclodextrin 12 g/100 ml, 25° C., 1-st run, read-out: solubility of thyroxine free acid) was 765 µg/mL. It also gave a solubility ([1]; water with γ-cyclodextrin, γ-cyclodextrin 12 g/100 ml, 25° C., 2-nd run, read-out: solubility of thyroxine free acid) of 800 µg/mL, a solubility ([1]; water with γ-cyclodextrin, γ-cyclodextrin 15 g/100 ml, 25° C., 1-st run, read-out: solubility of thyroxine free acid) of 1020 µg/mL and a solubility ([1]; water with γ-cyclodextrin, γ-cyclodextrin 15 g/100 ml, 25° C., 2-nd run, read-out: solubility of thyroxine free acid) of 1000 µg/mL. The solubility ([1]; water with γ-cyclodextrin, γ-cyclodextrin 20 g/100 ml, 25° C., 1-st run, read-out: solubility of thyroxine free acid) was 1390 µg/mL, the solubility ([1]; water with γ-cyclodextrin, γ-cyclodextrin 20 g/100 ml, 25° C., 2-nd run, read-out: solubility of thyroxine free acid) was 1440 µg/mL and the solubility ([1]; water, without cyclodextrin, read-out: aqueous solubility of the free acid form of L-thyroxine) was 110 to 150 µg/mL. The solubility ([1]; water, γ-cyclodextrin 0 g/100 ml, 25° C., 1-st run, read-out: solubility of thyroxine free acid) was 110 µg/mL and the solubility ([1]; water, γ-cyclodextrin 0 g/100 ml, 25° C., 2-nd run, read-out: solubility of thyroxine free acid) was 150 µg/mL.
`N[C@@H](Cc1cc(I)c(Oc2cc(I)c(O)c(I)c2)c(I)c1)C(=O)O` [L-thyroxine sodium salt, Levothyroxine sodium] gave a solubility ([2]; water with 2-hydroxypropylated-β-cyclodextrin, 2-hydroxypropylated-β-cyclodextrin 1.0%) of 1440 µg/mL, a solubility ([2]; water with 2-hydroxypropylated-β-cyclodextrin, 2-hydroxypropylated-β-cyclodextrin 5.0%) of 2900 µg/mL and a solubility ([2]; water with 2-hydroxypropylated-β-cyclodextrin, 2-hydroxypropylated-β-cyclodextrin 7.0%) of 2740 µg/mL. It also gave a solubility ([2]; water with 2-hydroxypropylated-β-cyclodextrin, 2-hydroxypropylated-β-cyclodextrin 10.0%) of 2770 µg/mL, a solubility ([2]; water with 2-hydroxypropylated-β-cyclodextrin, 2-hydroxypropylated-β-cyclodextrin 12.0%) of 3050 µg/mL and a solubility ([2]; water with 2-hydroxypropylated-β-cyclodextrin, 2-hydroxypropylated-β-cyclodextrin 15.0%) of 3140 µg/mL. For the same compound, the solubility ([2]; water with 2-hydroxypropylated-β-cyclodextrin, 2-hydroxypropylated-β-cyclodextrin 3.0%) was 3100 µg/mL, the solubility ([2]; water with heptakis-2,6-di-o-methyl-β-cyclodextrin, heptakis-2,6-di-O-methyl-β-cyclodextrin 1.0%) was 3160 µg/mL and the solubility ([2]; water with heptakis-2,6-di-o-methyl-β-cyclodextrin, heptakis-2,6-di-O-methyl-β-cyclodextrin 3.0%) was 5500 µg/mL. For the same compound, the solubility ([2]; water with randomly-methylated-β-cyclodextrin, randomly-methylated-β-cyclodextrin 1.0%) was 3700 µg/mL, the solubility ([2]; water with randomly-methylated-β-cyclodextrin, randomly-methylated-β-cyclodextrin 5.0%) was 8360 µg/mL and the solubility ([2]; water with randomly-methylated-β-cyclodextrin, randomly-methylated-β-cyclodextrin 7.0%) was 9330 µg/mL. It also gave a solubility ([2]; water with randomly-methylated-β-cyclodextrin, randomly-methylated-β-cyclodextrin 10.0%) of 10300 µg/mL, a solubility ([2]; water with randomly-methylated-β-cyclodextrin, randomly-methylated-β-cyclodextrin 12.0%) of 13300 µg/mL and a solubility ([2]; water with randomly-methylated-β-cyclodextrin, randomly-methylated-β-cyclodextrin 15.0%) of 16800 µg/mL. For the same compound, the solubility ([2]; water with randomly-methylated-β-cyclodextrin, randomly-methylated-β-cyclodextrin 3.0%) was 6150 µg/mL, the solubility ([2]; water with γ-cyclodextrin, γ-cyclodextrin 1.0%) was 5480 µg/mL and the solubility ([2]; water with γ-cyclodextrin, γ-cyclodextrin 5.0%) was 16900 µg/mL. For the same compound, the solubility ([2]; water with γ-cyclodextrin, γ-cyclodextrin 7.0%) was 26600 µg/mL, the solubility ([2]; water with γ-cyclodextrin, γ-cyclodextrin 12.0%) was 35100 µg/mL and the solubility ([2]; water with γ-cyclodextrin, γ-cyclodextrin 15.0%) was 44200 µg/mL. The solubility ([2]; water with γ-cyclodextrin, γ-cyclodextrin 3.0%) was 12100 µg/mL, the solubility ([2]; water, 1.0% maltosyl-β-cyclodextrin, Maltosyl-β-cyclodextrin 1.0%) was 2290 µg/mL and the solubility ([2]; water, 2-hydroxypropylated-β-cyclodextrin column, 0% (no CDs)) was 2000 µg/mL. For the same compound, the solubility ([2]; water, 3.0% maltosyl-β-cyclodextrin, Maltosyl-β-cyclodextrin 3.0%) was 2480 µg/mL, the solubility ([2]; water, 5.0% dimethyl-β-cyclodextrin, heptakis-2,6-di-O-methyl-β-cyclodextrin 5.0%) was 7000 µg/mL and the solubility ([2]; water, 5.0% maltosyl-β-cyclodextrin, Maltosyl-β-cyclodextrin 5.0%) was 2320 µg/mL. It also gave a solubility ([2]; water, 7.0% dimethyl-β-cyclodextrin, heptakis-2,6-di-O-methyl-β-cyclodextrin 7.0%) of 7620 µg/mL, a solubility ([2]; water, 7.0% maltosyl-β-cyclodextrin, Maltosyl-β-cyclodextrin 7.0%) of 2940 µg/mL and a solubility ([2]; water, 10.0% maltosyl-β-cyclodextrin, Maltosyl-β-cyclodextrin 10.0%) of 2730 µg/mL. The solubility ([2]; water, 12.0% dimethyl-β-cyclodextrin, heptakis-2,6-di-O-methyl-β-cyclodextrin 12.0%) was 12100 µg/mL, the solubility ([2]; water, 12.0% maltosyl-β-cyclodextrin, Maltosyl-β-cyclodextrin 12.0%) was 2800 µg/mL and the solubility ([2]; water, 15.0% dimethyl-β-cyclodextrin, heptakis-2,6-di-O-methyl-β-cyclodextrin 15.0%) was 14200 µg/mL. It also gave a solubility ([2]; water, 15.0% maltosyl-β-cyclodextrin, Maltosyl-β-cyclodextrin 15.0%) of 2680 µg/mL, a solubility ([2]; water, Maltosyl-β-cyclodextrin column, 0% (no CDs)) of 2000 µg/mL and a solubility ([2]; water, heptakis-2,6-di-O-methyl-β-cyclodextrin column, 0% (no CDs)) of 2000 µg/mL. For the same compound, the solubility ([2]; water, randomly-methylated-β-cyclodextrin column, 0% (no CDs)) was 2000 µg/mL, the solubility ([2]; water, γ-cyclodextrin column, 0% (no CDs)) was 2000 µg/mL and the “improvement of aqueous solubility of L-thyroxine sodium” value ([2]; γ-cyclodextrin, among unsubstituted cyclodextrins) was “improve the aqueous solubility of L-thyroxine sodium most remarkably”.
For `OC[C@H]1O[C@@H]2O[C@H]3[C@H](O)[C@@H](O)[C@@H](O[C@H]4[C@H](O)[C@@H](O)[C@@H](O[C@H]5[C@H](O)[C@@H](O)[C@@H](O[C@H]6[C@H](O)[C@@H](O)[C@@H](O[C@H]7[C@H](O)[C@@H](O)[C@@H](O[C@H]8[C@H](O)[C@@H](O)[C@@H](O[C@H]9[C@H](O)[C@@H](O)[C@@H](O[C@H]1[C@H](O)[C@H]2O)O[C@@H]9CO)O[C@@H]8CO)O[C@@H]7CO)O[C@@H]6CO)O[C@@H]5CO)O[C@@H]4CO)O[C@@H]3CO` [γ-cyclodextrin], the precipitate formation ([3]; aqueous γ-cyclodextrin solution without L-thyroxine-Na, after one week of storage) was “small amount of white precipitate formation” and the “haze / precipitate formation on storage” value ([3]; clear aqueous γ-cyclodextrin solutions without L-thyroxine-Na, or L-thyroxine-Na/γ-cyclodextrin hydrogels) was “hazy within three days”.
With thyroxine the “effect on the solubility of thyroxine” value [2] was “practically no effect”, the “improvement of aqueous solubility of thyroxine” value [2] was “did not significantly improve the aqueous solubility of thyroxine” and the “solubilizing potency of methylated-β-cyclodextrins for thyroxine versus γ-cyclodextrin” value [2] was “less potent solubilizers of thyroxine, than the chemically non-modified γ-cyclodextrin”.
